Test [1] deals with T1, ET receptor, rat aortic smooth muscle cells (Rattus norvegicus, UniProt P26684).
T1 construct: endogenous in cells; host or cells: rat aortic smooth muscle cells
T1 sequence (P26684 21-426): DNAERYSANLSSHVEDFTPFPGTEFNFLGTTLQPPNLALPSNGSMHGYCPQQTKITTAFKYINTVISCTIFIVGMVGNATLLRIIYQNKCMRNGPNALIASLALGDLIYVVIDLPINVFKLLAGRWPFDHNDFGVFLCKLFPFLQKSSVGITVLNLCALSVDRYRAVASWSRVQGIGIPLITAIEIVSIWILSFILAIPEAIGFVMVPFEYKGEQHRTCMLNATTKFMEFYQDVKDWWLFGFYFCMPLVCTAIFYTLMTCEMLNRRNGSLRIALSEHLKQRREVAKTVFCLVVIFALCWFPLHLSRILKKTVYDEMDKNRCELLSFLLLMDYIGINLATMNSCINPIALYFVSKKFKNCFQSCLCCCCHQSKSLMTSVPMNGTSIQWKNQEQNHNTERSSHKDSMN
The note with it: reference (23), cited from earlier work.

The subject of test [2] is Aortic Smooth Muscle Cells (A7r5). Briefly: Induction of apoptosis by Cell Death ELISA (cytoplasmic histone-DNA fragments) in A7r5 cells. The settings on record: 24 h treatment, serum free medium, FIG. 4. The test is classed as cell-based, rat. The protocol: Induction of Apoptosis in Aortic Smooth Muscle Cells (A7r5) by wax myrtle extract and myriceric acid,: Quantitation of apoptotic cell death was determined by Cell Death ELISA (Roche Biochemicals) that measures cytoplasmic histone-DNAfragments produced during apoptosis. Briefly, A7r5 cells (5×10^3/well)were grown in 96-well plates and treated, in triplicates, for 24 h with the indicated doses of wax myrtle extract and myriceric acid A. After treatment, the 96-well plates were centrifuged (200×g) for 10 min. The supernatant was discarded, lysis buffer was added, and samples were incubated at room temperature. Lysates were transferred to reaction wells and incubated with anti-histone biotin and anti-DNA peroxidase antibodies and incubated at room temperature for 2 h. After three washes, the peroxidase substrate was added to each well, and the plates were read at 405 nm after 15-min incubation. The enrichment of histone-DNAfragments treated cells is expressed as absorbance at 405 nm.

Test [3] has the same test system. Briefly: Methylene Blue Cell Proliferation assay, Aortic Smooth Muscle Cells (A7r5). The test is classed as cell-based, rat. The note with it: 3 days, methylene blue staining, serum free medium, FIG. 3. The protocol: Inhibition of Proliferation of Aortic Smooth Muscle Cells (A7r5) by wax myrtle extract: The Methylene Blue Cell Proliferation assay assess growth inhibition in a cell-based proliferation assay using protein staining as an estimate of relative cell number. For assessment of cell-based potency, A7r5 (20,000 cells/well) were plated in 96-well plates in the growth media. After 24 h, cells were exposed to compounds at different concentrations. A final concentration of 0.2% DMSO was added to the growth media to keep the compounds in solution. After 3 days, relative cell numbers were estimated using methylene blue staining. The absorbance at 620 nm was read in a microplate reader. Data were analyzed using curve-fitting macros written for Microsoft Excel. Concentrations with IC50 were interpolated using the equation: y=Vmax×[1−(x^n/(K^n+x^n))], where “K” is equal to IC50.

The test system of test [4] is ET-1-induced [Ca++] flux in rat aortic smooth muscle cells A7r5. The settings on record: reference (23), cited from earlier work.

With Myriceric acid A, the “Ki, binding of radiolabeled ET to rat aortic smooth muscle cells” value in test [1] is 0.04 µg/mL. The Ki in test [1] (read-out: Ki, binding of radiolabeled ET to rat aortic smooth muscle cells) was 66 nM. For the same substance, the “apoptosis, enrichment of histone-DNA fragments (absorbance at 405 nm)” value in test [2] was “dose-dependent apoptosis”. In addition, the “estimated IC50, growth inhibition of A7r5” value in test [3] is on record as 0.87±0.30 […]μg/ml. For the same substance, the half-maximal inhibitory concentration (IC50) in test [4] (repeated as I50 for block of ET signaling pathway, read-out: IC50, inhibition of ET-1-induced [Ca++] flux) was 11 nM. Moreover, the “IC50, inhibition of ET-1-induced [Ca++] flux” value in test [4] is 0.0075 µg/mL.

By Ki is commonly meant a dissociation constant, usually derived from enzyme kinetics or from competition with a known ligand. A word on the IC50: it is the concentration that inhibits the measured activity by half.

(Values after US20090022821A1, “COMPOSITIONS FROM WAX MYRTLE FOR THE TREATMENT OF CANCER, CARDIOVASCULAR AND INFLAMMATORY DISEASES” (priority 2007, published 2009).)
